# Laboratory results reported in US20190100534A1, “Cephem Compounds with Latent Reactive Groups” (Gladius Pharmaceuticals, Inc., priority 2017, published 2019).
# Experiments:
# [1] = system: CF (Citrobacter freundii); experiment: MIC determination; type: cell-based; settings: CAMH broth, 20 μM Apo-Transferrin, 37° C., 18 hours
# Summary of the method: (§1)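 Broth microdilution in cation-adjusted Mueller-Hinton broth with 20 μM apo-transferrin, two-fold compound series from 64 μg/mL, inoculum adjusted to 0.5 McFarland from 4-5 h LB cultures. Plates incubated 18 h at 37 °C. MIC taken as lowest concentration leaving a clear well.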
# EC (Escherichia coli) = experiment: MIC determination; type: cell-based; settings: 20 μM Apo-Transferrin, 37° C., 18 hours
# Summary of the method: as §1
# [2] = system: ENC (Enterobacter cloacae); experiment: MIC determination; type: cell-based; settings: CAMH broth, 20 μM Apo-Transferrin, 37° C., 18 hours
# Summary of the method: as §1
# [3] = system: KOXY (Klebsiella oxytoca); experiment: MIC determination; type: cell-based; settings: CAMH broth, 20 μM Apo-Transferrin, 37° C., 18 hours
# Summary of the method: as §1
# [4] = system: KP (Klebsiella pneumoniae); experiment: MIC determination; type: cell-based; settings: 20 μM Apo-Transferrin, 37° C., 18 hours
# Summary of the method: as §1
# PM (Proteus mirabilis) = experiment: MIC determination; type: cell-based; settings: CAMH broth, 20 μM Apo-Transferrin, 37° C., 18 hours
# Summary of the method: as §1
# SM (Serratia marcescens) = experiment: MIC determination; type: cell-based; settings: CAMH broth, 20 μM Apo-Transferrin, 37° C., 18 hours
# Summary of the method: as §1
# EC(KB1 CTX-M-14) = experiment: MIC determination; type: cell-based, Escherichia coli
# Summary of the method: as §1
# EC(KB2 CTX-M-14) = experiment: MIC determination; type: cell-based, Escherichia coli
# Summary of the method: as §1
# KP(ATCC SHV-18) = experiment: MIC determination; type: cell-based, Klebsiella pneumoniae; settings: CAMH broth, 20 μM Apo-Transferrin, 37° C., 18 hours
# Summary of the method: as §1
# KP(ATCC TEM-10/TEM-12) = type: cell-based, Klebsiella pneumoniae; settings: CAMH broth, 20 μM Apo-Transferrin, 37° C., 18 hours
# Procedure: (§2) Sterile technique was used throughout these experiments. Suspensions of organisms were removed from storage (−80° C.) and partially thawed. Partially thawed organisms (1 μL) were inoculated into 3 mL sterile LB Broth in a sterile culture tube and capped, then cultured at 37° C. with shaking for 4-5 hours until the optical density at 600 nm (OD600) was greater than 0.1 on a single beam spectrophotometer.
# (§3) The concentration of organisms was adjusted to 0.08-0.1 OD600 (0.5 McFarland units) by dilution with sterile cation-adjusted Meuller-Hinton (CAMH) broth. The suspensions were used within 30 minutes of preparation.
# (§4) A stock solution was made of each test compound by measuring 6.4 mg of the compound on an analytical balance and dissolving it in DMSO (1 mL) to get a transparent solution. The solutions were stored at −20° C. and thawed prior to use.
# (§5) Sterile CAMH broth (200 μL) containing 20 μM Apo-Transferrin was pipetted into the first row of 8 columns of a sterile, round-bottomed, transparent, 96-well microplate using an 8-channel pipette equipped with sterile tips. One hundred μL was pipetted into the wells of the remaining 11 rows.
# (§6) With an 8-channel pipette equipped with sterile tips, 100 μL of the first row solution was transferred to the second row and mixed. The process was repeated for the second to third rows and continued through row 11. One hundred μL from row 11 was removed and discarded so that all 12 rows contained 100 μL. Row 12 contained no compound and rows 1-11 contained 64, 32, 16, 8, 4, 2, 1, 0.5, 0.25, 0.125, […] of a given compound.
# (§7) Inoculant suspensions (0.5 μL) were added to the 12 wells of each column. The plates were then covered and incubated at 37° C. overnight for 18 hours.
# (§8) For each organism the MIC was determined by identifying the transparent well with the lowest test compound concentration.
# ENA (URMC-1) = experiment: MIC determination; type: cell-based, Enterobacter aerogenes; settings: CAMH broth, 20 μM Apo-Transferrin, 37° C., 18 hours
# Procedure: as §2, §3, §4, §5, §6, §7, §8
# ENA (URMC-2) = experiment: MIC determination; type: cell-based, Enterobacter aerogenes; settings: CAMH broth, 20 μM Apo-Transferrin, 37° C., 18 hours
# Procedure: as §2, §3, §4, §5, §6, §7, §8
# PM (RR -1) = experiment: MIC determination; type: cell-based, Proteus mirabilis; settings: CAMH broth, 20 μM Apo-Transferrin, 37° C., 18 hours
# Procedure: as §2, §3, §4, §5, §6, §7, §8
# CF (RR -1) = experiment: MIC determination; type: cell-based, Citrobacter freundii; settings: CAMH broth, 20 μM Apo-Transferrin, 37° C., 18 hours
# Procedure: as §2, §3, §4, §5, §6, §7, §8
# [5] = system: various Pseudomonas strains; experiment: MIC determination, summary in text; type: cell-based, Pseudomonas aeruginosa; settings: review of Tables 1-1 and 1-2
# Procedure: as §2, §3, §4, §5, §6, §7, §8
# various enteric bacteria = experiment: MIC determination, summary in text; type: cell-based; settings: review of Tables 3-1 to 3-6
# Procedure: as §2, §3, §4, §5
# To each well of the first row was pipetted 2.0 μL of the 6.4 mg/mL stock test compound stock solution to give 1:100 dilutions and a final concentration of 64 μg/mL and mixed.
# as §6, §7, §8
# [6] = system: both Acinetobacter baumannii strains tested; experiment: MIC determination, summary in text; type: cell-based; settings: review of Table 2
# Procedure: as §2, §3, §4, §5
# With an 8-channel pipette equipped with sterile tips, 100 μL of the first row solution was transferred to the second row and mixed. […]
# as §8
# [7] = first KP column of Table 3-1, CAMH broth
# [8] = second KP column of Table 3-1, CAMH broth
smiles,measurement,setting,value
"CC(C)(O/N=C(\C(=O)N[C@@H]1C(=O)N2C(C(=O)O)=C(C=Cc3ccc(C[n+]4ccc5cc(O)c(O)cc5c4)cc3)CS[C@H]12)c1csc(N)n1)C(=O)O (mixture of isomers) [Compound 435, 2-(4-((E/Z)-2-((6R,7R)-7-((Z)-2-(2-aminothiazol-4-yl)-2-(((2-carboxypropan-2-yl)oxy)imino)acetamido)-2-carboxy-8-oxo-5-thia-1-azabicyclo[4.2.0]oct-2-en-3-yl)vinyl)benzyl)-6,7-dihydroxyisoquinolin-2-ium]","Minimum Inhibitory Concentrations, CF",[1],≤0.06 microgram/mL
same,"Minimum Inhibitory Concentrations, EC","EC (Escherichia coli); Table 3-1, CAMH broth",≤0.06 microgram/mL
same,"Minimum Inhibitory Concentrations, EC","EC (Escherichia coli); first EC column of Table 3-1, CAMH broth",≤0.06 microgram/mL
same,"Mimimum Inhibitory Concentrations, ENC",[2],16 microgram/mL
same,"Minimum Inhibitory Concentrations, KOXY",[3],≤0.06 microgram/mL
same,"Minimum Inhibitory Concentrations, KP",[4]; [7],≤0.06 microgram/mL
same,"Minimum Inhibitory Concentrations, KP",[4]; [8],≤0.06 microgram/mL
same,"Minimum Inhibitory Concentrations, PM",PM (Proteus mirabilis),≤0.06 microgram/mL
same,"Minimum Inhibitory Concentrations, SM",SM (Serratia marcescens),0.25 microgram/mL
same,"Minimum Inhibitory Concentrations, EC(KB1 CTX-M-14)","EC(KB1 CTX-M-14); EC(KB1 CTX-M-14), CAMH broth, 20 μM Apo-Transferrin, 37° C., 18 hours",≤0.06 microgram/mL
same,"Minimum Inhibitory Concentrations, EC(KB2 CTX-M-14)","EC(KB2 CTX-M-14); EC(KB2 CTX-M-14), CAMH broth, 20 μM Apo-Transferrin, 37° C., 18 hours",≤0.06 microgram/mL
same,"Minimum Inhibitory Concentrations, KP(ATCC SHV-18)",KP(ATCC SHV-18),0.25 microgram/mL
same,"Minimum Inhibitory Concentrations, KP(ATCC TEM-10/TEM-12)",KP(ATCC TEM-10/TEM-12),2 microgram/mL
same,"Minimum Inhibitory Concentrations, ENA (URMC-1)",ENA (URMC-1),0.13 microgram/mL
same,"Minimum Inhibitory Concentrations, ENA (URMC-2)",ENA (URMC-2),0.13 microgram/mL
same,"Mimimum Inhibitory Concentrations, PM (RR -1)",PM (RR -1),≤0.06 microgram/mL
same,"Mimimum Inhibitory Concentrations, CF (RR -1)",CF (RR -1),≤0.06 microgram/mL
same,"MICs for various Pseudomonas strains, in words",[5],low microgram/mL MICs
same,"MICs for various enteric bacteria, in words",various enteric bacteria,low microgram/mL MICs
"CC(C)(O/N=C(\C(=O)N[C@@H]1C(=O)N2C(C(=O)O)=C(C=Cc3ccc(C[N+]4(C)CCc5cc(O)c(O)cc5C4)cc3)CS[C@H]12)c1csc(N)n1)C(=O)O (mixture of isomers) [Compound 407, 2-(4-((E/Z)-2-((6R,7R)-7-((Z)-2-(2-aminothiazol-4-yl)-2-(((2-carboxypropan-2-yl)oxy)imino)acetamido)-2-carboxy-8-oxo-5-thia-1-azabicyclo[4.2.0]oct-2-en-3 yl)vinyl)benzyl)-6,7-dihydroxy-2-methyl-1,2,3,4-tetrahydroisoquinolin-2-ium]",MIC,"[1]; Citrobacter freundii, read-out: Minimum Inhibitory Concentrations, CF",≤ 0.06 µg/mL
same,MIC,"EC (Escherichia coli); Escherichia coli, first EC column of Table 3-1, CAMH broth, read-out: Minimum Inhibitory Concentrations, EC",0.25 µg/mL
same,"Minimum Inhibitory Concentrations, EC","EC (Escherichia coli); Table 3-1, CAMH broth",0.25 microgram/mL
same,"Mimimum Inhibitory Concentrations, ENC",[2],4 microgram/mL
same,MIC,"[3]; Klebsiella oxytoca, read-out: Minimum Inhibitory Concentrations, KOXY",1 µg/mL
same,"Minimum Inhibitory Concentrations, KP",[4]; [7],0.25 microgram/mL
same,"Minimum Inhibitory Concentrations, KP",[4]; [8],0.25 microgram/mL
same,MIC,"PM (Proteus mirabilis); Proteus mirabilis, read-out: Minimum Inhibitory Concentrations, PM",≤ 0.06 µg/mL
same,MIC,"SM (Serratia marcescens); Serratia marcescens, read-out: Minimum Inhibitory Concentrations, SM",0.25 µg/mL
same,MIC,"EC(KB1 CTX-M-14); Escherichia coli, 18 h, read-out: Minimum Inhibitory Concentrations, EC(KB1 CTX-M-14)",2 µg/mL
same,MIC,"EC(KB2 CTX-M-14); Escherichia coli, 18 h, read-out: Minimum Inhibitory Concentrations, EC(KB2 CTX-M-14)",64 µg/mL
same,"Minimum Inhibitory Concentrations, KP(ATCC SHV-18)",KP(ATCC SHV-18),2 microgram/mL
same,"Minimum Inhibitory Concentrations, KP(ATCC TEM-10/TEM-12)",KP(ATCC TEM-10/TEM-12),0.25 microgram/mL
same,MIC,"ENA (URMC-1); Klebsiella aerogenes, read-out: Minimum Inhibitory Concentrations, ENA (URMC-1)",0.5 µg/mL
same,MIC,"ENA (URMC-2); Klebsiella aerogenes, read-out: Minimum Inhibitory Concentrations, ENA (URMC-2)",0.5 µg/mL
same,"Mimimum Inhibitory Concentrations, PM (RR -1)",PM (RR -1),≤0.06 microgram/mL
same,"Mimimum Inhibitory Concentrations, CF (RR -1)",CF (RR -1),0.13 microgram/mL
same,"MICs for various Pseudomonas strains, in words",[5],low microgram/mL MICs
same,"MICs for both Acinetobacter baumannii strains tested, in words",[6],lower microgram/mL MICs
